ChEMBL document CHEMBL3621118, “Virtual screening for novel Atg5Atg16 complex inhibitors for autophagy modulation” (2015)
Active and inactive are the calls of the source. The calls are words filed in the database; no cut-off is given here.

Columns and labels:
A2780 [1] = test: Inhibition of PBS-induced autophagy in human A2780 cells assessed as decrease in depletion of p62 level at 50 to 100 uM preincubated for 1 hr followed by PBS induction measured after 3 hrs by Western blot analysis; format: functional, cell-based
A2780 [2] = test: Inhibition of PBS-induced autophagy in human A2780 cells assessed as decrease in LC3-2 level at 50 to 100 uM preincubated for 1 hr followed by PBS induction measured after 3 hrs by Western blot analysis; format: functional, cell-based
[3] = Cytotoxicity against human NCI60 cells assessed as cell growth at 10 uM after 24 hrs by SRB assay relative to control; format: functional; conditions: NCI60, 24 h, read-out: Activity
MCF7 = test: Inhibition of chloroquine-induced autophagy in human MCF7 cells assessed as suppression of autophagosome formation at 25 uM after 5 hrs by MDC staining-based fluorescence microscopic analysis; format: functional, cell-based
A2780 [4] = test: Inhibition of PBS-induced autophagy in human A2780 cells assessed as decrease in LC3-2 level preincubated for 1 hr followed by PBS induction measured after 3 hrs by Western blot analysis; format: functional, cell-based
A2780 [5] = test: Inhibition of PBS-induced autophagy in human A2780 cells assessed as decrease in depletion of p62 level preincubated for 1 hr followed by PBS induction measured after 3 hrs by Western blot analysis; format: functional, cell-based

Structure (SMILES)	inhibition (A2780 [1])	inhibition (A2780 [2])	growth at 10 µM [3]	inhibition (MCF7)	inhibition (A2780 [4])	inhibition (A2780 [5])
O=C(NCCCCc1ccccc1)c1ccc(Br)cc1	inactive	inactive	–	–	–	–
Cc1cccc(CS(=O)(=O)NCc2ccc(N3CCCC3)cc2)c1	Active	Active	90.1%	Active	–	–
O=C(NCCCCc1ccccc1)c1ccccc1Br	inactive	inactive	–	–	–	–
COc1ccc(NC(=O)C(=O)NCCN2CCN(C(=O)c3ccc(Cl)cc3Cl)CC2)cc1	inactive	inactive	–	–	–	–
O=C(NCCCOc1ccccc1)c1cccc2ccccc12	Active	Active	–	Active	–	–
O=C(NCCCCc1ccccc1)c1ccc(Cl)cc1Cl	–	–	–	Active	Dose-dependent effect	Dose-dependent effect
O=C(NCCCCc1ccccc1)c1ccccc1F	Active	Active	–	–	–	–
Cc1ccc(OCC(=O)Nc2ccc(N3CCN(C(=O)c4ccco4)CC3)cc2)cc1	Active	Active	–	–	–	–
O=C(CNC(=O)c1ccc(Cl)cc1Cl)OCC(=O)c1ccc(Br)cc1	inactive	inactive	–	–	–	–
O=C(NCCCc1ccccc1)c1ccccc1	inactive	inactive	–	–	–	–
O=C(NC1CCN(Cc2ccccc2)CC1)c1ccc(Cl)cc1Cl	inactive	inactive	–	–	–	–
O=C(NCCCCc1ccccc1)c1cccc(Br)c1	inactive	inactive	–	–	–	–
